Test system: other kinases including FMS and cKit
Assay: Kinase panel screening, overall selectivity
Format: biochemical
Settings: 36 different kinases, single dose of 10 µM
Protocol: Next, we investigated kinase panel screening of 7d and 7b over 36 different kinases at a single dose of 10 µM (Figure 5). […] High selectivity over cKit might be an opportunity to avoid myelosuppression toxicity, which was reported from a dual FLT3/cKit inhibitor[19–22]. It is a valuable result to secure such a kinase selectivity profile considering the similarities of the same type III receptor tyrosine kinase (FMS, cKit and FLT3).
3. Evaluation of IC50 and Selected Kinase Profiling
We used Reaction Biology Corp. Kinase HotSpotSM service (www.reactionbiology.com) for IC50 determination of all compounds and kinase profile. Assay protocol: In a final reaction volume of 25 μL, Peptide substrate, [[…]], 5 µM, ATP 10 µM, FLT3(h) (5-10 […]
mU) is incubated with 25 mM Tris pH 7.5, 0.02 mM EGTA, 0.66 mg/mL myelin basic protein, 10 mM Mg Acetate and [γ-33P-ATP] (specific activity approx. 500 cpm/pmol, concentration as required). The reaction is initiated by the addition of the Mg-ATP mix. After incubation for 40 minutes at room temperature, the reaction is stopped by the addition of 5 μL of a 3% phosphoric acid solution. 10 μL of the reaction is then spotted onto a P30 filtermat and washed three times for 5 minutes in 75 mM phosphoric acid and once in methanol prior to drying and […]

Q: How did the “activity on other kinases in panel (in words)” value turn out when `Cc1oncc1C(=O)Nc1ccc2cnc(-c3cc(N4CCN(C)CC4)cc(C(F)(F)F)c3)nc2c1` [Compound 7d, 5-methyl-N-(2-(3-(4-methylpiperazin-1-yl)-5-(trifluoromethyl)phenyl)quinazolin-7-yl)isoxazole-4-carboxamide] was run?
A: almost no activity

— article PMC7241567 (Journal of Enzyme Inhibition and Medicinal Chemistry, 2020)
